Test results as given in patent publication US20180153995A1, “USE OF ANTIMICROBIAL POLYMERS FOR RE-SENSITIZATION OF MICROORGANISMS UPON EMERGENCE OF RESISTANCE TO ANTI-MICROBIAL AGENTS” (Technion Research & Development Foundation Limited, priority 2008, published 2018).
Read-outs that look alike come from different tables or passages of the source.

What was measured:
S. maltophila 748 = assay: Antibiotic MIC by microdilution with or without sub-MIC polymer; format: cell-based, Stenotrophomonas maltophila
MRSA 15903 = assay: microbe, parasite or virus in culture; format: cell-based, Staphylococcus aureus
Outline: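 Values are FIC indexes, summing each agent's MIC in combination divided by its MIC alone, for MRSA 15903. Interpretation: <0.5 clear re-sensitization, 0.5 to 4 marginal or none, >4 antagonistic.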

S. aureus 15819 = assay: Antibiotic MIC by microdilution with or without sub-MIC polymer; format: cell-based, Staphylococcus aureus; details: S. aureus 15819
E. coli 14182 = assay: as above; format: cell-based, Escherichia coli; details: polymer at ½ of its MIC
S. aureus 43300 [1] = assay: as above; format: cell-based, Staphylococcus aureus
S. aureus 17314 = assay: as above; format: cell-based, Staphylococcus aureus; details: S. aureus 17314; +½ MIC (3.12 μM) C16(9-ene)KKNC12KNH2
[2] = system: E. coli K-12 efflux knockout mutant; format: cell-based, Escherichia coli; details: E. coli AG100A (efflux−)
Outline: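 Broth microdilution, inocula 10^5 bacteria/ml, 24 h at 37 °C. Growth read as OD620 against calibration standards.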

E. coli 16327 = assay: microbe, parasite or virus in culture; details: for Antibiotic MIC: E. coli 16327
S. aureus 43300 [3] = assay: Antibiotic MIC by microdilution with or without sub-MIC polymer; format: cell-based, Staphylococcus aureus; remark: listed apart in the source
[4] = +¼ MIC (1.6 μM) C12K(KNC12K)3NH2
[5] = +½ MIC (3.12 μM) C12K(KNC12K)3NH2
[6] = +⅓ MIC (2.1 μM) C12K(KNC12K)3NH2
[7] = +¼ MIC (1.6 μM) C16(9-ene)KKNC12KNH2
[8] = +½ MIC (3.12 μM) C16(9-ene)KKNC12KNH2
[9] = +⅓ MIC (2.1 μM) C16(9-ene)KKNC12KNH2
[10] = +¼ MIC (1.6 μM) C14(9-ene)KKNC12KNH2
[11] = +½ MIC (3.12 μM) C14(9-ene)KKNC12KNH2
[12] = +⅓ MIC (2.1 μM) C14(9-ene)KKNC12KNH2

Question: Which results are given for gentamicin?
Answer: Antibiotic MIC (S. maltophila 748; [4]): 16 µg/mL; Antibiotic MIC (S. maltophila 748; [5]): 8 µg/mL; Antibiotic MIC (S. maltophila 748; [6]): 16 µg/mL; Antibiotic MIC (S. maltophila 748; no polymer (None), Table 13): 16 µg/mL; MIC (MRSA 15903; MRSA 15903, +¼ polymer MIC (1.6 μM) NC12(KNC12K)2NH2): 128 µg/mL; MIC (MRSA 15903; MRSA 15903, +½ polymer MIC (3.1 μM) NC12(KNC12K)2NH2): 128 µg/mL; MIC (MRSA 15903; MRSA 15903, +⅓ polymer MIC (2.1 μM) NC12(KNC12K)2NH2): 128 µg/mL; MIC (MRSA 15903; S. aureus CI-15903, +polymer (½ MIC) C12(5-ene)KKNC12KNH2): 128 µg/mL; MIC (MRSA 15903; S. aureus CI-15903, +polymer (⅓ MIC) C12(5-ene)KKNC12KNH2): 128 µg/mL; Antibiotic MIC (S. aureus 15819; +¼ MIC (1.6 μM) C12(5-ene)KKNC12KNH2): 1 µg/mL; Antibiotic MIC (S. aureus 15819; [4]): 1 µg/mL; Antibiotic MIC (S. aureus 15819; +¼ MIC (1.6 μM) C12KKNC12KNH2): 1 µg/mL; Antibiotic MIC (S. aureus 15819; +½ MIC (3.12 μM) C12(5-ene)KKNC12KNH2): 1 µg/mL; Antibiotic MIC (S. aureus 15819; [5]): 0.5 µg/mL; Antibiotic MIC (S. aureus 15819; +½ MIC (3.12 μM) C12KKNC12KNH2): 1 µg/mL; Antibiotic MIC (S. aureus 15819; +⅓ MIC (2.1 μM) C12(5-ene)KKNC12KNH2): 1 µg/mL; Antibiotic MIC (S. aureus 15819; [6]): 1 µg/mL; Antibiotic MIC (S. aureus 15819; +⅓ MIC (2.1 μM) C12KKNC12KNH2): 1 µg/mL; Antibiotic MIC (S. aureus 15819; no polymer (None), Table 8): 1 µg/mL; Antibiotic MIC (S. aureus 15819; no polymer (None), Table 11): 1 µg/mL; Antibiotic MIC (S. aureus 15819; no polymer (None), Table 13): 1 µg/mL; Antibiotic MIC in presence of C12K(NC8K)7NH2 (SEQ ID NO: 4), +½ MIC (E. coli 14182): 64 to 128 µg/mL; Antibiotic MIC (S. aureus 43300 [1]; [7]): 64 µg/mL; Antibiotic MIC (S. aureus 43300 [1]; [8]): 32 to 64 µg/mL; Antibiotic MIC (S. aureus 43300 [1]; [9]): 64 µg/mL; Antibiotic MIC (S. aureus 17314): 64 µg/mL; Antibiotic MIC, None ([2]; antibiotic alone (Table 16)): 4 to 8 µg/mL; Antibiotic MIC, None ([2]; antibiotic alone (Table 17)): 4 to 8 µg/mL; Antibiotic MIC in presence of C12K(NC8K)7NH2 (SEQ ID NO: 4), +¼ MIC ([2]; polymer at ¼ of its MIC (Table 16)): 4 µg/mL; Antibiotic MIC in presence of C12K(NC8K)7NH2 (SEQ ID NO: 4), +½ MIC ([2]; polymer at ½ of its MIC (Table 16)): 2 to 4 µg/mL; Antibiotic MIC in presence of C12K(NC8K)7NH2 (SEQ ID NO: 4), +⅓ MIC ([2]; polymer at ⅓ of its MIC (Table 16)): 4 µg/mL; Antibiotic MIC in presence of the OAK, +¼ MIC ([2]; the OAK at ¼ of its MIC (Table 17)): 4 µg/mL; Antibiotic MIC in presence of the OAK, +½ MIC ([2]; the OAK at ½ of its MIC (Table 17)): 4 µg/mL; Antibiotic MIC in presence of the OAK, +⅓ MIC ([2]; the OAK at ⅓ of its MIC (Table 17)): 4 µg/mL; Antibiotic MIC (E. coli 16327; +¼ MIC (1.6 μM) C12K(KNC12K)2NH2): 8 µg/mL; Antibiotic MIC (E. coli 16327; [10]): 4 µg/mL; Antibiotic MIC (E. coli 16327; [7]): 4 µg/mL; Antibiotic MIC (E. coli 16327; +½ MIC (3.12 μM) C12K(KNC12K)2NH2): 4 µg/mL; Antibiotic MIC (E. coli 16327; [11]): 2 µg/mL; Antibiotic MIC (E. coli 16327; [8]): 4 µg/mL; Antibiotic MIC (E. coli 16327; +⅓ MIC (2.1 μM) C12K(KNC12K)2NH2): 8 µg/mL; Antibiotic MIC (E. coli 16327; [12]): 4 µg/mL; Antibiotic MIC (E. coli 16327; [9]): 4 µg/mL; Antibiotic MIC (E. coli 16327; no polymer (None), Table 9): 4 µg/mL; Antibiotic MIC (E. coli 16327; no polymer (None), Table 10): 4 µg/mL; Antibiotic MIC (E. coli 16327; no polymer (None), Table 12): 8 µg/mL; MIC, Alone (E. coli 16327; E. coli U16327, antibiotic alone (Table 22)): 4 µg/mL; MIC, ¼ + MIC OAK (E. coli 16327; E. coli U16327, with C12K(KNC10K)3NH2 (SEQ ID NO: 10) at ¼ of its MIC): 4 µg/mL; MIC, ½ + MIC OAK (E. coli 16327; E. coli U16327, with C12K(KNC10K)3NH2 (SEQ ID NO: 10) at ½ of its MIC): 2 to 4 µg/mL; MIC, ⅓ + MIC OAK (E. coli 16327; E. coli U16327, with C12K(KNC10K)3NH2 (SEQ ID NO: 10) at ⅓ of its MIC): 4 µg/mL; Antibiotic MIC, None (E. coli 16327; E. coli U-16327, antibiotic alone (Table 15)): 4 µg/mL; Antibiotic MIC in presence of C12K(NC8K)7NH2 (SEQ ID NO: 4), +¼ MIC (E. coli 16327; E. coli U-16327, polymer at ¼ of its MIC): 4 µg/mL; Antibiotic MIC in presence of C12K(NC8K)7NH2 (SEQ ID NO: 4), +½ MIC (E. coli 16327; E. coli U-16327, polymer at ½ of its MIC): 1 to 2 µg/mL; Antibiotic MIC in presence of C12K(NC8K)7NH2 (SEQ ID NO: 4), +⅓ MIC (E. coli 16327; E. coli U-16327, polymer at ⅓ of its MIC): 2 µg/mL; Antibiotic MIC (S. aureus 43300 [3]; [10]): 64 to 128 µg/mL; Antibiotic MIC (S. aureus 43300 [3]; [11]): 64 to 128 µg/mL; Antibiotic MIC (S. aureus 43300 [3]; [12]): 64 to 128 µg/mL; Antibiotic MIC (S. aureus 43300 [3]; no polymer (None), Table 9): 64 to 128 µg/mL; Antibiotic MIC (S. aureus 43300 [3]; no polymer (None), Table 10): 64 µg/mL
